Assay results published in US20220186188A1, “Method for Obtaining Pancreatic Progenitor Cells and Pancreatic Islet Beta Cells By Means of Differentiation of Human Pluripotent Stem Cells” (Asia Regenerative Medicine, Ltd., priority 2019, published 2022).

Columns and labels:
[1] = test system: pancreatic progenitor cells differentiated from human embryonic stem cells; test: Flow cytometry detection of PDX1 in the pancreatic progenitor cell stage (human embryonic stem cells); assay type: cell-based; details: 2 μM inhibitor in pancreatic progenitor cell medium, 5 days, compared with control group without WNT inhibitor
Description: (§1) a pancreatic progenitor cell medium was prepared, the medium in step 1) was replaced with the pancreatic progenitor cell medium, and the cells were cultured in a carbon dioxide incubator at 37 degrees Celsius for 5 days, during which the medium was replaced every day, wherein the composition of the pancreatic progenitor cell medium was: with an MCDB131 medium as a basic medium, and the following components at the working concentrations were further included: 0.5% of bovine serum albumin (BSA), 1.5 g/L of sodium bicarbonate, 1×glutamine (GlutaMAX), 10 mM glucose, […], 1×insulin-transferrin-selenium-ethanolamine additive (ITS-X), 50 ng/ml of fibroblast growth factor 7 (KGF), 0.5 μM SANT1 (with smo as an inhibitor target), 100 nM retinoic acid (TTNPB), 500 nM phorbol 12,13-dibutyrate (PDBu), 2 μM ALK inhibitor (K02288), and 2 μM WNT signaling pathway inhibitor XAV-939 (not added in a control group), with the concentrations all being final concentrations. […]

[2] = test system: pancreatic progenitor cells differentiated from human induced pluripotent stem cells; test: Flow cytometry detection of PDX1 in the pancreatic progenitor cell stage (human induced pluripotent stem cells); assay type: cell-based; details: 2 μM inhibitor in pancreatic progenitor cell medium, 5 days, compared with control group without WNT inhibitor
Description: as §1, with “factor” for “factor 7”

Oc1nc(-c2ccc(C(F)(F)F)cc2)nc2c1CSCC2 [XAV-939]
PDX1-positive pancreatic progenitor cells (flow cytometry) [1]: significantly increased
PDX1-positive pancreatic progenitor cells (flow cytometry) [2]: significantly increased
